Results as given in US10857128B2, “Methods and compositions for treating inflammatory diseases” (Helmholtz Zentrum München Deutsches Forschungszentrum für …, priority 2017, dated 2020).

Test: Oral supplementation of mice with D-tryptophan in drinking water: serum levels and tolerability
Format: in vivo, Balb/c mice
Conditions: 14 days
Description: Enantiomeric separation of D-Tryptophan in murine sera. The investigator (C.M.) was blinded to the murine intervention groups. Due to the abundance of interfering proteins a protein precipitation was done. For this purpose the sera were thawed on ice and 20 μL of each sample were vigorously shaken with 80 μL 4° C. methanol (Chromasolve, Fluka, St. Louis, USA) and centrifuged (15,000×g at 4° C. for 15 min). The supernatants were taken, evaporated and resolved in water before injection. The derivation was performed as described for bacterial supernatants with some modifications as recently published (Müller et al., J Chromatogr A. 2014 Jan. 10; 1324:109-14). For quantification human serum was spiked with different concentrations (0.005-0.15 μg/mL) of D-Tryptophan and randomly analyzed.
Animals and oral supplementation with D-tryptophan. […]

**Q.** With `N[C@H](Cc1c[nH]c2ccccc12)C(=O)O` [D-tryptophan] as the compound, how does the “changes in behavior or body weight” value (1.8 or 18 mg/dL in drinking water, compared to controls) read?
**A.** No changes

**Q.** What about the D-tryptophan serum levels (oral 0.9 mg/day in drinking water) of the same compound?
**A.** increased D-tryptophan serum levels significantly
